What was measured:
[1] = biological target: T1, Prostaglandin G/H synthase 1 (Homo sapiens, UniProt P23219); type: functional
[2] = biological target: 5-hydroxytryptamine receptor 2B (Homo sapiens, UniProt P41595); type: functional, cell-based
[3] = biological target: T2, Adenosine receptor A3 (Homo sapiens, UniProt P0DMS8)
T2 sequence (P0DMS8 whole entry): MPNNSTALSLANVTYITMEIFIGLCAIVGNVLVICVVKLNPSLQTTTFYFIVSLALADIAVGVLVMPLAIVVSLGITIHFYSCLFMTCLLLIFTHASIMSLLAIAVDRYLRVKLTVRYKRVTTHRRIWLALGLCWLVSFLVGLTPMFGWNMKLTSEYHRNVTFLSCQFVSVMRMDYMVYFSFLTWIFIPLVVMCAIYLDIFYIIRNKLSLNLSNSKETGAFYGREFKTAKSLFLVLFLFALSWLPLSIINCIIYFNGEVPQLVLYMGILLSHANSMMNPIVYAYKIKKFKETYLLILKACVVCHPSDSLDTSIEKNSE

[4] = biological target: D(3) dopamine receptor (Homo sapiens, UniProt P35462)
[5] = biological target: Prothrombin (Homo sapiens, UniProt P00734); type: functional
[6] = biological target: D(1A) dopamine receptor (Homo sapiens, UniProt P21728)
[7] = biological target: Voltage-gated inwardly rectifying potassium channel KCNH2 (Homo sapiens, UniProt Q12809); type: functional; conditions: read-out: AC50
[8] = biological target: T3, Alpha-1A adrenergic receptor (Homo sapiens, UniProt P35348); type: functional, cell-based
T3 sequence (P35348 whole entry): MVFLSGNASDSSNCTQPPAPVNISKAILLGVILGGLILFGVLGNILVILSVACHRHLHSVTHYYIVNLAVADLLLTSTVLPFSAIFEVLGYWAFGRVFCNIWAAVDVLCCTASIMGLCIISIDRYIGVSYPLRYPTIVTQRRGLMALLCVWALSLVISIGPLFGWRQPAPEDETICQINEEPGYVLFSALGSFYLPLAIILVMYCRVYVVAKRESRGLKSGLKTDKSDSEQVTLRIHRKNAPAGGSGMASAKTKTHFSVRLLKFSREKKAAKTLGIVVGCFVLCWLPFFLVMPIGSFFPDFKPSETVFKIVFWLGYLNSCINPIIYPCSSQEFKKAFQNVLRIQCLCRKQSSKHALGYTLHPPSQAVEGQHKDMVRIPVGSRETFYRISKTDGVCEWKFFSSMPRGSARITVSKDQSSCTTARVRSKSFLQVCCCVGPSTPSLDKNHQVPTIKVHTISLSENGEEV

[9] = biological target: T4, Muscarinic acetylcholine receptor M2 (Homo sapiens, UniProt P08172)
T4 sequence (P08172 whole entry): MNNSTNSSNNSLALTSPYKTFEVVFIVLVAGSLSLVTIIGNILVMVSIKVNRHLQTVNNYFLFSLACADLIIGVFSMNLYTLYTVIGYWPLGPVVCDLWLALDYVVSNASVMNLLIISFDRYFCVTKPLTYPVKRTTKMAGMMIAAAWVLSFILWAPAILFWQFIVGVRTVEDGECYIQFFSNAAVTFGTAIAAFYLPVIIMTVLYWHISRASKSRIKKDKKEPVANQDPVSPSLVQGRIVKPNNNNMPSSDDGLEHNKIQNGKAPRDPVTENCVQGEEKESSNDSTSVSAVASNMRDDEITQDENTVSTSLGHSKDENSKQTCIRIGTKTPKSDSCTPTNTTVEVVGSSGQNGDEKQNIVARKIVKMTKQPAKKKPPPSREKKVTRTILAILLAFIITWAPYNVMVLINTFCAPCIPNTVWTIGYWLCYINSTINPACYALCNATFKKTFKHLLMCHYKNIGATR

[10] = biological target: T5, Alpha-2A adrenergic receptor (Homo sapiens, UniProt P08913)
T5 sequence (P08913 whole entry): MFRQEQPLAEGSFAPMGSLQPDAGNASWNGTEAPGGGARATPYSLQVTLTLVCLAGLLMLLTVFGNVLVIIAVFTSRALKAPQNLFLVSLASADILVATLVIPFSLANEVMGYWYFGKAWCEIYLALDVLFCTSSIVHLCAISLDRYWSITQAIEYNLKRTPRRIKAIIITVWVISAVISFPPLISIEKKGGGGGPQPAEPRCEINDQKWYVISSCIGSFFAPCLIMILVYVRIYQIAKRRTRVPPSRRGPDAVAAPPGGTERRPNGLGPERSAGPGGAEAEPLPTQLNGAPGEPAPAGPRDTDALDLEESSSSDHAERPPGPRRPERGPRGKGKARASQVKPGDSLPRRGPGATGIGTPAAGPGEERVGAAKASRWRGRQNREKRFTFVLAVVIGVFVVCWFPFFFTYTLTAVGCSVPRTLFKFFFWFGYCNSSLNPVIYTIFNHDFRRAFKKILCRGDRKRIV

[11] = biological target: Histamine H3 receptor (Homo sapiens, UniProt Q9Y5N1)
[12] = biological target: T6, Thromboxane A2 receptor (Homo sapiens, UniProt P21731); type: functional, cell-based
T6 sequence (P21731 whole entry): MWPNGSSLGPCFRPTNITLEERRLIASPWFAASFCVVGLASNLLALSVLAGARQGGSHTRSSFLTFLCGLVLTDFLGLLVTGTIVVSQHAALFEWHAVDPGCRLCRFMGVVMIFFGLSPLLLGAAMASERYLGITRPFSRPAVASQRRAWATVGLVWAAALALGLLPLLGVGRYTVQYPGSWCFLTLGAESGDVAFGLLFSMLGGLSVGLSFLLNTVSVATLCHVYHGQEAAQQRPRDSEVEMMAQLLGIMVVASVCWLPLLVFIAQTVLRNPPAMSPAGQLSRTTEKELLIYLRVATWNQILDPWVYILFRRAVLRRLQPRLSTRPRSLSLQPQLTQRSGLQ

[13] = biological target: Sodium-dependent serotonin transporter (Homo sapiens, UniProt P31645)
[14] = biological target: Mu-type opioid receptor (Homo sapiens, UniProt P35372)
[15] = biological target: T1, Prostaglandin G/H synthase 1; type: functional; remark: listed apart in the source
Also: assay procedure not described here.

Chain of D(1A) dopamine receptor (P21728 whole entry): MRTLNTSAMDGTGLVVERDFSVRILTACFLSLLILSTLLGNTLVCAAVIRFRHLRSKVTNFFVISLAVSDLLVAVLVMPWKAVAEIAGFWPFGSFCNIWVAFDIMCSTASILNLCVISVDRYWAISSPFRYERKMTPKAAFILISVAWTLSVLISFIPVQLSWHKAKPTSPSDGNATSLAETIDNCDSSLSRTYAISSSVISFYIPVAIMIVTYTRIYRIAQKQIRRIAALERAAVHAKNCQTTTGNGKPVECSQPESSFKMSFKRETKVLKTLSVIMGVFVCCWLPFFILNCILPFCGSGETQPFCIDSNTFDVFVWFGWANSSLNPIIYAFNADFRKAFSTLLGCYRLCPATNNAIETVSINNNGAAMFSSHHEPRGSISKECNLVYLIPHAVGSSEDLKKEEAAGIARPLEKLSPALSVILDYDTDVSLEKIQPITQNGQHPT
Chain of Voltage-gated inwardly rectifying potassium channel KCNH2 (Q12809 whole entry): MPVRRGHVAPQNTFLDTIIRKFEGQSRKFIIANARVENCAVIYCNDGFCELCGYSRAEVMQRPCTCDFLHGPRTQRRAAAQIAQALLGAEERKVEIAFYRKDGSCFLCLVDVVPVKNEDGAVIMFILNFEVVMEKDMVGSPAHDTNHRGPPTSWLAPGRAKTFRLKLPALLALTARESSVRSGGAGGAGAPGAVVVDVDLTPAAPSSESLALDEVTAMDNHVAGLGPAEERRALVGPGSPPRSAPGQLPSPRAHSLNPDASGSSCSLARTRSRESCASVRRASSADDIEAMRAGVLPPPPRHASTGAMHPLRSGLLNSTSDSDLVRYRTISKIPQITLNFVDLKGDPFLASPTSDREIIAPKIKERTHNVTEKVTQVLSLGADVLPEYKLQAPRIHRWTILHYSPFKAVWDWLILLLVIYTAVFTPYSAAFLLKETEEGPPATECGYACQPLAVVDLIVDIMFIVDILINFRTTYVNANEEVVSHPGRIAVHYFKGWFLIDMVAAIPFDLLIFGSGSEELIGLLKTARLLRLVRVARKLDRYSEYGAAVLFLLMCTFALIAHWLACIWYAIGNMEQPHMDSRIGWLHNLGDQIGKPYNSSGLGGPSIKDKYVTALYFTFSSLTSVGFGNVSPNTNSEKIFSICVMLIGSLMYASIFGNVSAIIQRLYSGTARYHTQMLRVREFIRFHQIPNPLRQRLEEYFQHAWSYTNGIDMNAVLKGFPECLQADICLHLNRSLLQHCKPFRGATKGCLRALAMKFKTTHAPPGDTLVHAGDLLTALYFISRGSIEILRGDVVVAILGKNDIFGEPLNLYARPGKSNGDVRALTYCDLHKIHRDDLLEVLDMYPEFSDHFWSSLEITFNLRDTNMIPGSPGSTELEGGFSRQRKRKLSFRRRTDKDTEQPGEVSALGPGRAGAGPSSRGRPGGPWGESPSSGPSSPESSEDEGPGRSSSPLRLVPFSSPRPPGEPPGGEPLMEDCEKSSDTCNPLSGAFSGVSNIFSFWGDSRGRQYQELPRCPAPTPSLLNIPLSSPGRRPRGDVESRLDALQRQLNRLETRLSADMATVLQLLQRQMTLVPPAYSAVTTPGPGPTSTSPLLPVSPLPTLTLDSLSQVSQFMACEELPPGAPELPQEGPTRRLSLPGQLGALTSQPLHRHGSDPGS
Chain of Sodium-dependent serotonin transporter (P31645 whole entry): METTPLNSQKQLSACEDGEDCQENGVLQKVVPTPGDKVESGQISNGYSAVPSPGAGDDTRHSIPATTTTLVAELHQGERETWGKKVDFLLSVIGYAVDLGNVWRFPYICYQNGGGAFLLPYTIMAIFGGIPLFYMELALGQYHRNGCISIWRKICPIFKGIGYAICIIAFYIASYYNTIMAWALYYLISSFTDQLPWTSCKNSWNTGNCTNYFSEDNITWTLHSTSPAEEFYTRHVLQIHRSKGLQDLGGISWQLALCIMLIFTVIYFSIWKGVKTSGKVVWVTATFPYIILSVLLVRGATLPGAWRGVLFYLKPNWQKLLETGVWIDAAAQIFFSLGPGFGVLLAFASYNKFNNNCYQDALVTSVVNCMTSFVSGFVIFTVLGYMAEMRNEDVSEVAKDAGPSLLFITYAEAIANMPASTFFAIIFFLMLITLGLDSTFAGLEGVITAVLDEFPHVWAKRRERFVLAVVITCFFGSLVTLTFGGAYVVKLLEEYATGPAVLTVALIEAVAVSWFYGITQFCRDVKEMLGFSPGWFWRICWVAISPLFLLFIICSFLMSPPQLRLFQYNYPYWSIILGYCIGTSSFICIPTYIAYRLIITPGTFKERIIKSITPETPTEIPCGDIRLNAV
Chain of D(3) dopamine receptor (P35462 whole entry): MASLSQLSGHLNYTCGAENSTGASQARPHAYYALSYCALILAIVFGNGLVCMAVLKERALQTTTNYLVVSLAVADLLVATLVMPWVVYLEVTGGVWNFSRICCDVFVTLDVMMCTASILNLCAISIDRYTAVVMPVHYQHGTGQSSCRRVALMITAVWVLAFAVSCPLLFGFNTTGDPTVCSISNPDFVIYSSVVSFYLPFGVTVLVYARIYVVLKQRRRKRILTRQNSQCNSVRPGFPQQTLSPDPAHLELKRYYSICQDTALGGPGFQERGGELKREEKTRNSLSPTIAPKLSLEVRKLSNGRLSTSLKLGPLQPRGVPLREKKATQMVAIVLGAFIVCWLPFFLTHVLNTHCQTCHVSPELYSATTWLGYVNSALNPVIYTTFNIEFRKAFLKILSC
Chain of Histamine H3 receptor (Q9Y5N1 whole entry): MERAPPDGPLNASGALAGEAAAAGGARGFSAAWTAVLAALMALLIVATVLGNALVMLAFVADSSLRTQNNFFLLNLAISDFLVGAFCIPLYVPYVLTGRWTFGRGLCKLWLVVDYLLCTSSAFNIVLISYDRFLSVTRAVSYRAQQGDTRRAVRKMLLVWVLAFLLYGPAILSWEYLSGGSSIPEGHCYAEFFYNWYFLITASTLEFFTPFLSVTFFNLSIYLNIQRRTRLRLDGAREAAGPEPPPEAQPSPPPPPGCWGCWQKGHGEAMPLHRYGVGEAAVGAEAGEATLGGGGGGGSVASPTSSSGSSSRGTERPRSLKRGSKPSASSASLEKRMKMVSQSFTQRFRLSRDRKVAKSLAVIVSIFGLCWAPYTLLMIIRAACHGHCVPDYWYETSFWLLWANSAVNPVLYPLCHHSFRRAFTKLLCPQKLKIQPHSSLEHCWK
T1 sequence (P23219 whole entry): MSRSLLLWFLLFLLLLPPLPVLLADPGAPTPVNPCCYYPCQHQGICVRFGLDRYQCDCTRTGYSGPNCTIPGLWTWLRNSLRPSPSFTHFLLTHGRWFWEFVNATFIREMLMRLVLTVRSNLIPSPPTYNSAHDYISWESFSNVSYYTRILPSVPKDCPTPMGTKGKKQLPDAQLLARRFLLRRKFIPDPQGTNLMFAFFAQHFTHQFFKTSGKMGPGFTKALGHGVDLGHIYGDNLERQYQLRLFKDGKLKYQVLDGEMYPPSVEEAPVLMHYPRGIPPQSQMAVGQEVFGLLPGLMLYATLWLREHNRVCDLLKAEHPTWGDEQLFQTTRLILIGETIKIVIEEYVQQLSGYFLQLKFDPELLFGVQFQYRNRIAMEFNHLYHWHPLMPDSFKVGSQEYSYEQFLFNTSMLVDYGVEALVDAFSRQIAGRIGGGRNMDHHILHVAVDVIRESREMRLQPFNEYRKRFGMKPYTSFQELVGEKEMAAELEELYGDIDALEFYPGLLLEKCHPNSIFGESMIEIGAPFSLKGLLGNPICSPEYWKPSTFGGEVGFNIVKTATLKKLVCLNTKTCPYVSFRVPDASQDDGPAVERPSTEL
Chain of Mu-type opioid receptor (P35372 whole entry): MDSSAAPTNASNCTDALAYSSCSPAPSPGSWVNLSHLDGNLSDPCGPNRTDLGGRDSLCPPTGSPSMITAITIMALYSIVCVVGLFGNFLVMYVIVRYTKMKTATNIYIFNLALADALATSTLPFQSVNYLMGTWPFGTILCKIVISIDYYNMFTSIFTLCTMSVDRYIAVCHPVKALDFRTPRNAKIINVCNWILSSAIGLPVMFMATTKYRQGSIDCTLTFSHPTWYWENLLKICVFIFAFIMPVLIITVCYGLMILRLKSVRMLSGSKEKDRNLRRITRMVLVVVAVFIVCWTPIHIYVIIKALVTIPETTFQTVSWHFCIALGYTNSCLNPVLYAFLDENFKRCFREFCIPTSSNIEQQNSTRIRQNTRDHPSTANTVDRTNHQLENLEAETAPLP
Chain of 5-hydroxytryptamine receptor 2B (P41595 whole entry): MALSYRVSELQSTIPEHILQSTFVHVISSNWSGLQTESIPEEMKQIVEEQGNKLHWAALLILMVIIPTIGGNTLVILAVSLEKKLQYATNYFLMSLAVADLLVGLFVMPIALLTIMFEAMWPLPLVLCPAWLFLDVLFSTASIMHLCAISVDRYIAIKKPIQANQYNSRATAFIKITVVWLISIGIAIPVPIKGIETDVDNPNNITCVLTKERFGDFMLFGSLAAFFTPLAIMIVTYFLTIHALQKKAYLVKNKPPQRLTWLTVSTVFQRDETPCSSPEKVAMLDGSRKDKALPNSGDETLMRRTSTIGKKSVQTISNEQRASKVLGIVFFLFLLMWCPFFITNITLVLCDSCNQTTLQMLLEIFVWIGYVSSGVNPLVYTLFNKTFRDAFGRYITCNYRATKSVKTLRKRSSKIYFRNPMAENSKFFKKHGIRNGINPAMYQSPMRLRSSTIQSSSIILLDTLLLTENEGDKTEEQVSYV

Q: What does the source list for `CC(C(=O)O)c1ccc2c(c1)Cc1cccnc1O2` (stereo not given) [PRANOPROFEN]?
A: AC50 [1]: 0.702 µM; AC50 [2]: > 30 µM; AC50 [3]: > 30 µM; AC50 [4]: > 30 µM; AC50 [5]: > 30 µM; AC50 [6]: > 30 µM; AC50 [7]: > 30 µM; AC50 [8]: > 30 µM; AC50 [9]: > 30 µM; AC50 [10]: > 30 µM; AC50 [11]: > 30 µM; AC50 [12]: > 30 µM; AC50 [13]: > 10 µM; AC50 [14]: > 30 µM; AC50 [15]: 0.478 µM

Q: `CN1CCC2=C(C1)c1ccccc1Cc1ccccc12` [SETIPTILINE] was tested. Which AC50 [1] did it give?
A: > 30 µM

Q: What about the AC50 [2] of the same compound?
A: > 30 µM

Q: And the AC50 [3]?
A: > 30 µM

Q: What about the AC50 [4] of the same compound?
A: 0.543 µM

Q: What about the AC50 [5] of the same compound?
A: > 30 µM

Q: And the AC50 [6]?
A: 0.0882 µM

Q: And the AC50 [7]?
A: 13 µM

Q: And the AC50 [8]?
A: 0.231 µM

Q: What about the AC50 [9] of the same compound?
A: 0.855 µM

Q: And the AC50 [10]?
A: 0.0996 µM

Q: And the AC50 [11]?
A: > 30 µM

Q: And the AC50 [12]?
A: > 30 µM

Q: What about the AC50 [13] of the same compound?
A: 8.15 µM

Q: What about the AC50 [14] of the same compound?
A: 12.8 µM

Q: And the AC50 [15]?
A: > 30 µM

Q: Which AC50 [1] does the source give for `COc1ccc(CCC(C)NCC(O)c2ccc(O)c([S+](C)[O-])c2)cc1` (stereo not given) [SULFINALOL] here?
A: > 30 µM

Q: And the AC50 [2]?
A: > 30 µM

Q: And the AC50 [3]?
A: > 30 µM

Q: What about the AC50 [4] of the same compound?
A: > 30 µM

Q: And the AC50 [5]?
A: > 30 µM

Q: And the AC50 [6]?
A: > 30 µM

Q: And the AC50 [7]?
A: > 30 µM

Q: And the AC50 [8]?
A: 20.3 µM

Q: What about the AC50 [9] of the same compound?
A: > 30 µM

Q: What about the AC50 [10] of the same compound?
A: > 30 µM

Q: What about the AC50 [11] of the same compound?
A: > 30 µM

Q: What about the AC50 [12] of the same compound?
A: > 30 µM

Q: And the AC50 [13]?
A: 0.866 µM

Q: And the AC50 [14]?
A: > 30 µM

Q: And the AC50 [15]?
A: > 30 µM

Q: Which results are given for `C[C@@H]1O[C@@H](OC[C@H]2O[C@@H](Oc3c(-c4ccc(OCCO)c(OCCO)c4)oc4cc(OCCO)cc(O)c4c3=O)[C@H](O)[C@@H](O)[C@@H]2O)[C@H](O)[C@H](O)[C@H]1O` [TROXERUTIN]?
A: AC50 [1]: 22.4 µM; AC50 [2]: > 30 µM; AC50 [3]: 7.52 µM; AC50 [4]: > 30 µM; AC50 [5]: > 30 µM; AC50 [6]: > 30 µM; AC50 [7]: > 30 µM; AC50 [8]: > 30 µM; AC50 [9]: > 30 µM; AC50 [10]: > 30 µM; AC50 [11]: > 30 µM; AC50 [12]: > 30 µM; AC50 [13]: > 30 µM; AC50 [14]: > 30 µM; AC50 [15]: > 30 µM

Reference: ChEMBL document CHEMBL5291721, “A preclinical secondary pharmacology resource illuminates target-adverse drug reaction associations of marketed drugs” (Nat Commun, 2023)
